Laboratory results reported in ChEMBL document CHEMBL2146374, “Fused heterocyclic compounds as ion channel modulators: patent highlight” (ACS Med Chem Lett, 2012).

Target: Nav1.5 (sodium channel protein type 5 subunit alpha) (Homo sapiens, UniProt Q14524)
Test: Inhibition of human Nav1.5 expressed in HEK293 cells at 1 uM by whole cell patch clamp assay
Assay type: cell-based
Details: HEK293 cells that express human Nav1.5

Sequence of Nav1.5 (sodium channel protein type 5 subunit alpha) (Q14524 whole entry): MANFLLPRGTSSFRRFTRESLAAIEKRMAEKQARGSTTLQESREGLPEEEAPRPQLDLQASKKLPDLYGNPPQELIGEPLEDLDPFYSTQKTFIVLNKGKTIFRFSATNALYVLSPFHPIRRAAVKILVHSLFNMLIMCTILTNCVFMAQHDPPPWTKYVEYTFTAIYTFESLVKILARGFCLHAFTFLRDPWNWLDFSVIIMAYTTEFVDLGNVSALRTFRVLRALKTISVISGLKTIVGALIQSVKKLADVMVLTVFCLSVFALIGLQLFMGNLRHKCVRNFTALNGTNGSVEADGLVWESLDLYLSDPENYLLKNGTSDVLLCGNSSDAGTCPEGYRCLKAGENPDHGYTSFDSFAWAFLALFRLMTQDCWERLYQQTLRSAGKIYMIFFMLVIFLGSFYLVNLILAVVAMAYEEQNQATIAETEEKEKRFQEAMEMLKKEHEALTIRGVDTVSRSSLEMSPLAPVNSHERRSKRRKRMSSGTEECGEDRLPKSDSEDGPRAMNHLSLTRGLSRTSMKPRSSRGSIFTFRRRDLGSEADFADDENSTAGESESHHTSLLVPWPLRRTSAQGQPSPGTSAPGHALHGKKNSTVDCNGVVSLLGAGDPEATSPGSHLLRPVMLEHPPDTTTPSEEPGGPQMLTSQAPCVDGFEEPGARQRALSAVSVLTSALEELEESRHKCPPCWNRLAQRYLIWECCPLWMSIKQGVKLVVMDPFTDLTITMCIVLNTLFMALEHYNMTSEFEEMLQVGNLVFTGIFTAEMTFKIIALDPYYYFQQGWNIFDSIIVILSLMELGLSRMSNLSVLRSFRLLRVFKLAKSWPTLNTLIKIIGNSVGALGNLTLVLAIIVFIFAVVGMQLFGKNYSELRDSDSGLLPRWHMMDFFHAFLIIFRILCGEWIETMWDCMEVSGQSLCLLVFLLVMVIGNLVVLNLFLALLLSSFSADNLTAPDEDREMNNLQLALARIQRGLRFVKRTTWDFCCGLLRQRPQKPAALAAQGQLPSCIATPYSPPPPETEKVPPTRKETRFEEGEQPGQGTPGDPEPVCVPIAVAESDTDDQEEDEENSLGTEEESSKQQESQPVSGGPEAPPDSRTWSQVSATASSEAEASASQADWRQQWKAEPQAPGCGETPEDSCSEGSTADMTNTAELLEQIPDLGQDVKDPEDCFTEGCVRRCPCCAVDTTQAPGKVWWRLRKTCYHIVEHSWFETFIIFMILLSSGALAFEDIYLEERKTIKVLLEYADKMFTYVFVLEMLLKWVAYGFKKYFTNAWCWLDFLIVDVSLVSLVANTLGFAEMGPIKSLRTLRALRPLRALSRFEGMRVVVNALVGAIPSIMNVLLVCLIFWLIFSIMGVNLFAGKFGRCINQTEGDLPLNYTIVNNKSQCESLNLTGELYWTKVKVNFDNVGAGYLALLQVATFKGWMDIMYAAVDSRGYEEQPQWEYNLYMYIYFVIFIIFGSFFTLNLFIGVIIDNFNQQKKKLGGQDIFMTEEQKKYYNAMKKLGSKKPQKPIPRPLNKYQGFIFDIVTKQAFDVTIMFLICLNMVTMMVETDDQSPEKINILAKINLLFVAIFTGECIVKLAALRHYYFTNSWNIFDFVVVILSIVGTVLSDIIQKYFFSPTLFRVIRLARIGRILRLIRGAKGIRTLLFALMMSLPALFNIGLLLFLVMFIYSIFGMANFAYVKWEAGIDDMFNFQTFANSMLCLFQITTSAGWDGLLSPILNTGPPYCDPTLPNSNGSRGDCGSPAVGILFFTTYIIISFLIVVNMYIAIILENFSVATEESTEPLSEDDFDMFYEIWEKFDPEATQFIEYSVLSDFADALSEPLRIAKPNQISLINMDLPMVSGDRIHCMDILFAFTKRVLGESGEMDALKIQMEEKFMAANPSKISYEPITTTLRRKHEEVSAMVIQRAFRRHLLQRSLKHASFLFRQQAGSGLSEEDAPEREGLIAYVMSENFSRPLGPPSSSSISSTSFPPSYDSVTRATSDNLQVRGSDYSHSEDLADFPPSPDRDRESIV

SMILES | inhibition at 1 µM [%]
COc1ccccc1OCC(Cn1nc2ccc(-c3ccc(OC(F)(F)F)cc3)cn2c1=O)OC (centres undefined) | 55
Cc1nc(Cn2nc3ccc(-c4ccc(Oc5ccc(Cl)cc5)cc4)cn3c2=O)no1 | 68.4
Cc1noc(Cn2nc3ccc(-c4ccc(Oc5ccc(Cl)cc5)cc4)cn3c2=O)n1 | 55.8
Cc1noc(Cn2nc3ccc(-c4ccc(Oc5ccc(F)cc5)cc4)cn3c2=O)n1 | 71.2
